ChEMBL document CHEMBL1128631, “Photoinduced electron transfer for pyrenesulfonamide conjugates of tryptophan-containing peptides. Mitigation of fluoroprobe behavior in N-terminal labeling experiments” (Bioorg Med Chem Lett, 1995)

Assays:
Type in all cases: ADME
[1] = Half-life time was measured in the presence of methyl cyanide solvent
[2] = Life-time was measured in the presence of methyl cyanide solvent (t = weighted average of two lifetimes from biexponential decay)
[3] = Life-time was measured in the presence of DMF solvent (t = weighted average of two lifetimes from biexponential decay)

SMILES | T1/2 [1] | t [2] | t [3]
CCOC(=O)[C@H](Cc1c[nH]c2ccccc12)NC(=O)[C@H](C)NC(=O)[C@H](C)NS(=O)(=O)c1ccc2ccc3ccc([N+](=O)[O-])c4ccc1c2c34 | 0.16 us | – | –
CCOC(=O)[C@H](C)NS(=O)(=O)c1ccc2ccc3ccc([N+](=O)[O-])c4ccc1c2c34 | 12 us | – | –
CCOC(=O)[C@H](Cc1c[nH]c2ccccc12)NS(=O)(=O)c1ccc2ccc3cccc4ccc1c2c34 | – | 0.79 ns | 0.32 ns
CCOC(=O)[C@H](Cc1c[nH]c2ccccc12)NC(=O)[C@H](C)NS(=O)(=O)c1ccc2ccc3cccc4ccc1c2c34 | – | 0.76 ns | 0.5 ns
CCOC(=O)[C@H](Cc1c[nH]c2ccccc12)NC(=O)[C@H](C)NS(=O)(=O)c1ccc2ccc3ccc([N+](=O)[O-])c4ccc1c2c34 | 0.4 us | – | –
CCOC(=O)[C@H](Cc1c[nH]c2ccccc12)NC(=O)[C@H](C)NC(=O)[C@H](C)NS(=O)(=O)c1ccc2ccc3cccc4ccc1c2c34 | – | 3.1 ns | 1.3 ns
